Data on eight compounds can be found in US20250090565A1, “Compositions and Methods for Treating Bleeding and Bleeding Disorders” (YewSavin, Inc., priority 2021, published 2025).

One test deals with FVIII-deficient plasma. The test is described as follows: Thrombin generation assay (TGA) in FVIII-deficient plasma. The class given is biochemical, human. As to conditions: for thrombin generation ETP dependence on concentration: 0.01 mg/ml, 0.1 mg/ml, and 0.4 mg/ml in FVIII-deficient plasma. An excerpt:
Thrombin generation is regarded as a significant indicator of the efficiency of blood clotting. Therefore, the thrombin generation assay (“TGA”) can be used as a proxy to estimate overall blood clotting efficiency of factor proteins and others agents from observing the clotting of plasma samples. The thrombin generation experiments were run using a microtiter plate fluorometer. Solvent systems consisting of a buffer, a fluorogenic substrate, and eight candidate compounds in inert solvents were added to pre-warmed citrated FVIII-deficient plasma along with tissue factor. The clotting reactions in the plasma-compound mixtures were initiated by adding calcium chloride solution to all the samples, and the fluorescence measurements recorded by the fluorimeter were compared against negative control (FVIII-deficient plasma without compounds or solvent system), vehicle control (FVIII-deficient plasma with solvent system only), and positive control (FVIII-deficient plasma mixed with regular plasma) reference measurements.
Each of the eight candidate compounds was tested via the TGA at three different concentrations.

Another test relates to heparinized rabbit blood. The test is described as follows: Heparinized clotting test (in vitro). The class given is biochemical. As to conditions: heparinized blood. On the procedure:
The purpose of this experiment was to deduce a potential mechanism of action for chalcones in decreasing blood clotting and bleeding time. First, rabbit blood (200 μL) was added to the anticoagulant drug heparin (1.25 IU) in Eppendorf Tubes®. […] In untreated blood that is still inside a human or an animal, heparan sulfate that is found on cellular surfaces plays an equivalent role to heparin by forming a heparan-antithrombin complex and activating antithrombin.

Test [1] relates to ex vivo Hemophilia A human blood. The test is described as follows: Ca+2ACT whole blood coagulation time test, Hemophilia A human blood. The class given is biochemical. As to conditions: for mean clotting time: Hemophilia A blood specimens. An excerpt:
While there are standardized tests such as Activated Partial Thromboplastin Time (“aPTT”) and Partial Thromboplastin Time (“PPT”) that measure blood clotting times (i.e., coagulation times), none of these tests are amenable to testing a small molecule drug, mainly due to the fact that the clotting agents added in these tests completely overcome the effect of the drug. A Calcium +2 ion Activated Coagulation Time test (“Ca+2ACT test”) was developed for measuring coagulation times that is devoid of the activators, thereby allowing drug candidates to be tested and verify their effects. The results described below use whole blood clotting assay and measure the coagulation of blood (i.e., blood's ability to clot), specifically, how much time is required for the clotting.
In this study, calcium chloride (“CaCl2”), a standard coagulating compound, is used as a control to compare the efficacy of various test samples. DMA is used as vehicle for various test samples. In a first study, a freshly prepared 5 μl test sample in DMA is added to a 100 μl blood specimen and then incubated in incubation slot of KC1 Delta machine Correlated Stago-Startmax for 37° C. for 3 min. For the control sample, 50 μl of CaCl2 solution is added, and timer started, to a 100 μl blood specimen to provide a baseline against the test sample. A stop watch, and automated electronic machine display, is used to measure the coagulation time in connection with an electronic signal provided the testing machine. Fresh citrated blood specimen from six healthy volunteers and six hemophilia patients, with initial standard citrate concentration in the collected blood of 3.5%, and “in cuvette” calcium +2 activation (by addition of CaCl2 solution) was obtained.
In this study, the effect of drug is measured by coagulation time of blood using the Ca+2ACT test, in presence of variable concentration of the drug in the test sample. The efficacy tests used 5 microliter of 40 mg/mL solution added to 155 microliter final volume in the clotting cuvette, corresponding to […] of the clotting mixture. For the dose dependence studies, we examined three persons. The twelve concentrations range chosen is 5 microliter of 0.05 mg/mL to 40 mg/mL, the vehicle being zero point concentration. This corresponds to mimimum concentration in the study of 1.66 microgram/mL or 1.66 ppm of the drug, not withstanding Vehicle Control of zero. […] FIG. 45 illustrates coagulation time versus concentration for the candidate molecule 1 for blood specimens from a second patient. FIG. 46 illustrates coagulation time versus concentration for the candidate molecule 1 for blood specimens from a third patient.
As discussed above, the effect is measured by coagulation time of blood using the Ca+2ACT test, in presence of variable concentration of the drug. Initial efficacy tests used 5 microliters of 40 mg/mL solution added to 155 microliter final volume in the clotting cuvette, corresponding to 1.29 mg/1000 mg of the clotting mixture. More recent tests used 10E-2 to 10E-22 as concentration range with 1E-2 interval. Samples were tested no later than eight hours after collection, and preferably, no later than four hours after collection. Often times, with very low and zero concentrations of clotting agents, although the instrument recorded a clotting time, the samples were fluid and partially coagulated at best. However, good fit was obtained at 1E-18 and good statistical difference was obtained at 1E-16, with significant statistical p-values at 10E-8 and higher concentrations, a very good range for drug design. […] The dose dependence study was performed using NDA solvent, and water in case of Eloctate™.

As to “4-methoxyphenyl-3-(2,4-dimethoxyphenyl)-1-oxo-2-propene [HF-2021f]”, in the test with FVIII-deficient plasma, the “thrombin generation ETP dependence on concentration” value (“thrombin generation ETP dependence” below) is recorded as “observed dose dependence”.

Regarding `COc1ccc(C=CC(=O)c2c(O)cc(OC)cc2OC)cc1` [HF-2021b, 1-(2-hydroxy-4,6-dimethoxyphenyl)-3-(4-methoxyphenyl)prop-2-en-1-one], the “thrombin generation ETP dependence” value in the test with FVIII-deficient plasma is on record as “observed dose dependence”. For the same compound, the “activity in the heparinized blood assay” value in the test on heparinized rabbit blood was “active blood clotting agent”.

Regarding `O=C(/C=C/c1ccc(O)cc1)c1ccc(O)cc1O` [HF-2021c, (E)-1-(2,4-dihydroxyphenyl)-3-(4-hydroxyphenyl)prop-2-en-1-one], in the test on FVIII-deficient plasma, the “thrombin generation ETP dependence” value is “observed dose dependence”.

As for `COc1ccc(/C=C/C(=O)c2c(O)cc(O[C@@H]3O[C@H](CO[C@@H]4O[C@@H](C)[C@H](O)[C@@H](O)[C@H]4O)[C@@H](O)[C@H](O)[C@H]3O)cc2OC)cc1O` [HF-2021d, (E)-3-(3-hydroxy-4-methoxyphenyl)-1-[2-hydroxy-6-methoxy-4-[(2S,3R,4S,5S,6R)-3,4,5-trihydroxy-6-[[(2R,3R,4R,5R,6S) -3,4,5-trihydroxy-6-methyloxan-2-yl]oxymethyl]oxan-2-yl]oxyphenyl]prop-2-en-1-one], the “thrombin generation ETP dependence” value in the test with FVIII-deficient plasma is “observed dose dependence”.

Take `CC(C)=CCOc1ccc(/C=C/C(=O)c2ccc(OCC=C(C)C)cc2OCC(=O)O)cc1` [HF-2021e, 2-[5-(3-methylbut-2-enoxy)-2-[(E)-3-[4-(3-methylbut-2-enoxy)phenyl]prop-2-enoyl]phenoxy]acetic acid]: the “thrombin generation ETP dependence” value in the test on FVIII-deficient plasma is given as “observed dose dependence”. Also, the “thrombin concentration and ETP, combined dosing with HEMLIBRA” value was “greater thrombin concentrations and ETPs than any individual dosage” with FVIII-deficient plasma (0.1 mg/mL combined with 25, 50, 75 μg/ml HEMLIBRA, versus each drug alone (FIG. 32, 33)); “slightly more thrombin concentration and ETP” with FVIII-deficient plasma (0.1 mg/ml + 25 μg/ml HEMLIBRA versus 75 μg/ml HEMLIBRA alone). Moreover, the “possible cut of the required dose of HEMLIBRA on concurrent use” value with FVIII-deficient plasma (0.1 mg/ml + 25 μg/ml HEMLIBRA, roughly same thrombin generation as 75 μg/ml) is 67%. In addition, the “effect on thrombin concentration and ETP compared with HEMLIBRA” value in the test on FVIII-deficient plasma (0.4 mg/ml versus lowest tested HEMLIBRA concentration 25 μg/ml (FIG. 30, 31)) is recorded as “slightly lower effect”. This compound also registered a mean clotting time in test [1] (0.1 mg/mL, vehicle control 247.61 seconds) of 118.92 s. The “coagulation times compared with Eloctate” value in test [1] (HF2021e in NDA, Eloctate in water (FIG. 43)) was “higher than the coagulation times for Eloctate™”. In addition, the “EC50 compared with Eloctate” value in test [1] (concentration for 50% of the total effect on coagulation time (FIG. 43)) is on record as “lower than for Eloctate™”. Also, the “coagulation time dependence on dose” value in test [1] (dose dependence study in NDA solvent (FIG. 43)) was “linear coagulation time dependence”.

With `O=C(/C=C/c1ccc(O)cc1)c1c(O)cc(O)cc1O` [HF-2021g, (E)-3-(4-hydroxyphenyl)-1-(2,4,6-trihydroxyphenyl)prop-2-en-1-one], the “thrombin generation ETP dependence” value in the test on FVIII-deficient plasma is listed as “observed dose dependence”.

For `O=C(C=Cc1ccc2c(c1)OCO2)c1ccccc1` [HF-2022a, 3-(1,3-Benzodioxol-5-yl)-1-phenyl-2-propen-1-one], in the test on FVIII-deficient plasma, the “thrombin generation ETP dependence” value is on record as “observed dose dependence”.

For `COc1ccc(C=CC(=O)c2c(O)cc(O)cc2O)cc1` [ISK-CH, Iso-Sakutanetin Chalcone], the mean clotting time in test [1] (1×10^−7 mg/mL, vehicle control 200.87 seconds) was 116.4 s.
